In general, melting point refers to the temperature, or range, at which the solid turns liquid. `COc1ccc(C=NO)cc1C` showed a melting point of 70 to 72 °C.

The molecule `O=C(NC(Cc1ccc(OCc2cccc(F)c2)cc1)C(=O)O)c1cn2ccc(-c3ccc(Cl)cc3)cc2n1` (centres undefined) registered a melting point of 248 to 250 °C.

For the molecule `N#Cc1ccc2[nH]cc(Cc3cccnc3)c2c1`, the melting point was 125 °C.

`O=C1CC(c2cccc(-n3ccnc3)c2)=Nc2cc(N3CCOC3=O)c(-c3ccc(F)cc3)cc2N1`: the melting point was 230 °C.

Turning to `NC(=O)C1CNCCN1CCCC(c1ccc(F)cc1)c1ccc(F)cc1` (centres undefined), the melting point was 114 °C.

In turn, `C=Cc1c(OC)nc(-c2ccc(Cl)c(OC)c2F)nc1C(=O)OC` returned a melting point of 107 to 108 °C.

The molecule `CC(=O)Nc1ccc(C(C)=C(Cl)Cl)cc1[N+](=O)[O-]` displayed a melting point of 139 to 141 °C.

Molecule `CC(=O)OC1CSC(Oc2cncc(-c3ccc(C(F)(F)F)cc3)c2)C(OC(C)=O)C1OC(C)=O` (centres undefined) displayed a melting point of 163 to 164 °C.

`CCCCn1c(=O)cn[nH]c1=O` showed a melting point of 135 °C.

On to `COc1ccc(CNC(=O)CCC(=O)c2ccc3[nH]c4ncc(Cl)cc4c3c2)cc1`, for which the melting point came to 228 °C.

The molecule `Cc1ccc2oc(CC(=O)O)c(C)c2c1` yielded a melting point of 116 to 117 °C.

The molecule `O=C(CCCCCCC(=O)N1CCN(CCc2ccc3ccccc3c2)CC1)NO` returned a melting point of 118 to 120 °C.

Take `CC1(C)CN(C(=O)c2cc3c(C(=O)OC(C)(C)C)ncn3c3ccc(Cl)cc23)CC(C)(C)N1`: the melting point fell in the range of 241 to 242 °C.

In turn, `CCCCN1C(=O)C2C(=O)N(Cc3cc(C)ccc3C)C(=O)C(C1=O)C2(C)C` returned a melting point of 159 to 161 °C.

In the case of `COC(=O)c1ccc(Cl)cc1C(=O)c1ccccc1F`, the melting point is 115 to 116 °C.

On to `CCC(=O)c1ccc(OC)c(OC(C)C)c1`, for which the melting point fell in the range of 58.1 to 58.7 °C.

Turning to `O=C(CCCc1ccccc1)N[C@H]1C[C@H](C(=O)O)Nc2cc(Cl)cc(Cl)c21` (relative stereo), the melting point fell in the range of 189 to 191 °C.

Consider `CC#CCOc1ccc(SC(C(=O)NO)c2ccc(OC)cc2)cc1` (centres undefined), for which the melting point came to 156 °C.

Consider `Cc1ccc(S(=O)(=O)NC(Cc2ccccc2)C(=O)O)cc1` (centres undefined), for which the melting point lay within 134 to 135 °C.

On to `CC(CCl)(CCl)c1cc(Cl)nnc1Cl`, for which the melting point was in the range of 92 to 94 °C.

`CSc1nnc(-c2ccc(F)cc2)c(-c2ccc(N(C)C)cc2)n1` had a melting point of 144 to 146 °C.

`Cc1nc(-n2ccc(N)cc2=O)sc1C(=O)NCc1ccccc1`: the melting point was 171 to 172 °C.

`O=C(c1ccc(Cl)cc1)c1ccc(CBr)cc1` returned a melting point of 103 to 104 °C.

As for `C=CCOC(=O)c1ncn2c1[C@@H]1CCCN1C(=O)c1c(Cl)cccc1-2`, the melting point was 122 to 123 °C.

As to `O=C(CO)c1ccc(Oc2ccccc2)cc1`, the melting point is 67 to 69 °C.

As to `COCC(=O)Nc1nc2c(C)cccc2s1`, the melting point lay within 110 to 111 °C.

As for `Cn1cc(Br)cc(Nc2ccc(C3CNC3)cn2)c1=O`, the melting point was 123 to 124 °C.

`CCN(C(=O)C(F)(F)F)c1ccc(C(=O)O)cc1` gave a melting point of 132 °C.

`CCOC(=O)c1nn(-c2ccccc2)c2c1COc1ccccc1-2` came in with a melting point of 154 to 156 °C.

Molecule `CCOc1cc2ncc(C#N)c(Nc3cccc(Br)c3)c2cc1OCC` had a melting point of 173 to 175 °C.

`CCCOC(C)c1ccc(-c2ccc(O)cc2)cc1` (single isomer, unassigned; (+)): the melting point is 123 to 125 °C.

With `O=C(c1cc(Cl)cc(Cl)c1)N1CCc2cc(S(=O)(=O)N3CC(c4ccccc4)NC3=O)ccc21` (centres undefined), the melting point was 236 °C.

On to `CC(C)C[C@H](NC(=O)c1ccc2c(c1)Nc1ccccc1S2)C(=O)N1CCC2(C1)OCCO2`, for which the melting point lay in the range of 75 to 77 °C.

In the case of `CC(=O)CC(=O)NC1CCCCCCC1`, the melting point is 44 °C.

`COc1cc(OC)c2c(=O)[nH]c(-c3cc(C)c(OCCN4CCCC4)c(C)c3)nc2n1` gave a melting point of 228 to 230 °C.

Regarding `CCOC(C)Oc1cnc(C(C)C)nc1O` (centres undefined), the melting point was determined as 70 °C.

As to `C/C(=C\c1ccc(C(=O)O)cc1)c1ccc2c(c1)C(C)(C)C(=O)CC2(C)C`, the melting point fell in the range of 260 to 261 °C.

Consider `CS(=O)(=O)c1ccc(-c2nc(=O)c3ccccc3s2)cn1`, for which the melting point was in the range of 205 to 207 °C.

`N=C(Nc1ccc(CNCc2ccccc2)cc1)c1cccs1`: the melting point lay within 73 to 74 °C.

Consider `CCc1nc2c(C)c(C#N)c(C)nc2n1-c1ccc(CCNC(=O)NS(=O)(=O)c2ccc(C)cc2)cc1`, for which the melting point stood at 133 °C.

As to `CCOc1ccc(C2=NN(C3CCCCC3)C(=O)[C@H]3CC=CC[C@@H]23)cc1OCC` (relative stereo), the melting point fell in the range of 147 to 148 °C.

The molecule `Cn1c(C=O)c(-c2ccc(F)cc2)c2ccccc21` registered a melting point of 75 to 79 °C.

`CSC(=S)C1(c2ccccn2)CCCCS1` (centres undefined) returned a melting point of 79 °C.

Turning to `CC1CCc2nc(-c3ccccc3)[nH]c(=O)c2C1` (centres undefined), the melting point was 237 °C.

`CCOC(=O)C1CCc2[nH]c3ccccc3c2C1` (centres undefined): the melting point was 95 to 96 °C.

For `O=C(O)CCC(=O)N1CCc2cc(S(=O)(=O)N3CCN(c4ccc(C(=O)O)cc4)CC3)ccc21`, the melting point lay in the range of 255 to 257 °C.

Take `COc1ccc2c(c1)C(C)(C)NC2=O`: the melting point is 146 to 147 °C.

For `CN(C(=O)c1coc(C=Cc2ccc(C(F)(F)F)cc2)n1)c1ccc(CCCCn2ccnn2)cc1`, the melting point is 127 to 129 °C.

`COC(=O)C(=O)c1ccc(SCCOc2ccc3ccccc3c2)cc1` came in with a melting point of 124 to 125 °C.

As to `COCc1c(C(=O)OC)ncc2[nH]c3ccccc3c12`, the melting point was in the range of 134 to 135 °C.

Take `COc1ccc(C2(O)c3cccc(O)c3C(=O)c3c(O)cccc32)cc1`: the melting point fell in the range of 172 to 173 °C.

Take `COC1(c2cc(F)cc(CC#COC#CCc3cc(F)cc(C4(OC)CCOCC4)c3)c2)CCOCC1`: the melting point lay within 75 to 77 °C.

For `COC(=O)COc1cccc2c(O)cccc12`, the melting point was in the range of 177 to 179 °C.

In turn, `Cc1nn(C)c(Cl)c1C(=O)Nc1cccc2c1CCC2(C)C` had a melting point of 175 °C.

The molecule `CCNc1nc(SC)ncc1C=Nc1cc(OC)cc(OC)c1` had a melting point of 100 to 105 °C.

As for `CC(C)c1ccc(S(=O)(=O)Nc2ccc(OC(F)(F)F)cc2I)cc1`, the melting point was 72 °C.

`Nc1nc2ccccc2c2c1ncn2CCOCCCc1nccs1` registered a melting point of 134 to 135 °C.

`FC(F)(F)Oc1ccc(Nc2cc(-c3ccccc3)ncn2)cc1` came in with a melting point of 245 to 247 °C.

In turn, `CC(C(=O)n1c(=O)oc2ccccc21)C(O)c1ccccc1` (centres undefined) displayed a melting point of 155 to 158 °C.

For the molecule `O=C(O)C1CCc2ccc3[nH]ccc3c21` (centres undefined), the melting point is 166 to 167 °C.

Molecule `COc1cc(C=O)cc2c1OCCC2=O` came in with a melting point of 139 °C.

Take `Cc1nn(-c2ccccn2)c(C)c1S(N)(=O)=O`: the melting point was 160 to 163 °C.

For `CCCCCCCCCCCCOC(=O)CCC(=O)c1ccc(NCc2ccc3ccc4nc(C)[nH]c(=O)c4c3c2)cc1`, the melting point is 213 to 214 °C.

Regarding `CCc1nc(/C=C/c2cn(-c3ccccc3)nc2OCc2ccc(OCc3nc(-c4cccc(C(=O)O)c4)oc3C)c(OC)c2)cs1`, the melting point was in the range of 190 to 191 °C.

Turning to `Cc1c(NC(=O)c2ccc(OC[C@@H]3CCCO3)cc2)ccc2cc(CNCC3CCOCC3)cnc12`, the melting point is 92 to 94 °C.

As for `COc1cc(C=C2NC(=O)N(C)C2=O)ccc1O`, the melting point lay within 227 to 228 °C.

In turn, `Cn1cncc1[N+](=O)[O-]` showed a melting point of 58 to 60 °C.

`CCOC(=O)c1ccc(NCc2ccc(OCc3ccccc3)cc2)cc1`: the melting point fell in the range of 144 to 146 °C.

The molecule `CCOC(=O)C1CCc2cc(C(=O)c3ccccc3)c(O)cc21` (centres undefined) yielded a melting point of 83 to 84 °C.

For the molecule `COc1cc2c(cc1OCc1ccccc1)CCCC(C(=O)O)=C2`, the melting point was 163 to 165 °C.

In turn, `CCc1nc2nccc(-c3cccc(C(F)(F)F)c3)n2n1` had a melting point of 132 to 134 °C.

Molecule `CON=C1CN(c2c(F)c(N)c3c(=O)c(C(=O)O)cn(C4CC4)c3c2F)CC12CN(C)C2` came in with a melting point of 220 to 222 °C.

As to `CCNC1CN(c2cc3c(cc2F)c(=O)c2c(=O)[nH]sc2n3C2CC2)C1`, the melting point fell in the range of 231 to 236 °C.

In the case of `CC1(C)CC(c2ccc[nH]c2=O)c2cc(C#N)ccc2O1` (centres undefined), the melting point is 174 to 176 °C.

Take `CN(C)CCc1[nH]c2ccccc2c1CC(C#N)(c1ccccc1)c1ccccc1`: the melting point fell in the range of 181 to 185 °C.

The molecule `CCN(CC)C(=O)/C=C(\C)c1ccc(OCc2c(F)cccc2F)c(CC(=O)O)c1` returned a melting point of 167 to 168 °C.

The molecule `CCc1cc(-c2cccc(N)n2)c(OC)cc1OCCN(C)C` came in with a melting point of 109 °C.

Molecule `Cc1ccc2c(c1)C=C(N1CCN(CCN3CCOC3=O)CC1)c1cc(Cl)ccc1S2` showed a melting point of 194 to 196 °C.

On to `Nc1noc(-c2ccc(C(F)(F)F)cc2)c1Cl`, for which the melting point was in the range of 115 to 118 °C.

Molecule `Cc1cnc2n(c1=O)C(C)CCC2=NNc1ccccc1` (centres undefined) had a melting point of 165 to 166 °C.

`CN(CCCCCNC(=NCCSCc1csc(NC(=N)N)n1)NC#N)CCN(Cc1ccc(F)cc1)c1ccccn1` showed a melting point of 103 °C.

On to `N=C(Nc1cc(Cl)cc(NC(=O)/C=C/c2ccccc2C(F)(F)F)c1)c1ccccc1F`, for which the melting point fell in the range of 209 to 210 °C.

In the case of `Cc1cc2c(cc1Sc1ccc(C(=O)Nc3ccc(O)cc3)cc1)C(C)(C)CCC2(C)C`, the melting point was in the range of 236 to 237 °C.

For the molecule `CC(c1oc2ccccc2c(=O)c1-c1cccc(F)c1)n1nc(-c2ccc(OC(F)(F)F)cc2)c2c(N)ncnc21` (centres undefined), the melting point lay in the range of 224 to 226 °C.

As to `CCOC(CI)=Nc1ccc(Cl)cc1C(=O)c1ccccc1`, the melting point lay within 67 to 68 °C.

Consider `N#Cc1cc(Cl)cc(Oc2ccc(CC(=O)Nc3ccc(S(N)(=O)=O)cc3Cl)cc2Br)c1`, for which the melting point was 205 to 207 °C.

As for `Cc1nn2c(-c3cc(Cl)ccc3Cl)ccnc2c1C(N)=O`, the melting point lay in the range of 234 to 236 °C.

As to `Cc1c(I)nc2n1CCc1ccccc1C2OC1CCN(C)CC1` (centres undefined), the melting point was 59 °C.

For the molecule `Cn1ncc(N(CCCCl)Cc2ccccc2)c(Cl)c1=O`, the melting point fell in the range of 92 to 93 °C.

The values are drawn from a melting point compilation (Tetko et al.; mined from patent text by program, amines drawn as free bases though some values may be those of a salt).
